Measured values: patent US12391737B2, “Soluble NPY2 receptor agonists” (Boehringer Ingelheim International GmbH, priority 2020, dated 2025)
*1 amine or outer side, *2 acyl side, *3 side chain or, on linkers, in order; H or OH if unused. Where a SMILES comes first, the peptide text is derived from it. Side-chain parts run from the residue outwards. The star is where a group is joined. C18 diacid = O=C(O)CCCCCCCCCCCCCCCCC(=O)*; γGlu = O=C(O)[C@H](CCC(=O)[*:2])N[*:1]; Isovaleryl = CC(C)CC(=O)*; Ahx = NCCCCCC(=O)O

Experiments:
[1] = molecular target: T1, Human Neuropeptide Y2 Receptor (Homo sapiens, UniProt P49146); test: Radioligand binding competition assay (RLB); details: Table 3, 125I-PYY(1-36) competition; read-out: Ki
T1 construct: purchased CHEMICON HTS066M
T1 sequence (P49146 1-381): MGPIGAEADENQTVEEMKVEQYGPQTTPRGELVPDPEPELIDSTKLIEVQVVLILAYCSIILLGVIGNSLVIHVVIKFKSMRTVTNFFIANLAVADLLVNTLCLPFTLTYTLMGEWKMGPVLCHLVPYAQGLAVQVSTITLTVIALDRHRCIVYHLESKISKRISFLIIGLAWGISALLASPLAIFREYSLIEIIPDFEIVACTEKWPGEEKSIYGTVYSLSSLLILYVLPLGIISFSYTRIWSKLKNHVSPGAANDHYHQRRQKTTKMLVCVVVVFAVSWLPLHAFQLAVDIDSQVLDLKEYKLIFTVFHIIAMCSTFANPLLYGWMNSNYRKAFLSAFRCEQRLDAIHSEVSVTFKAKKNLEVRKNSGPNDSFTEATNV
Procedure, shortened: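 Competition binding used membranes expressing the receptor (0.5 μg protein/well) in 50 mM HEPES, 5 mM MgCl2, 1 mM CaCl2, pH 7.4 with 0.2% ovalbumin, incubated 2 h at room temperature with shaking. Bound radioligand was collected by filtration onto PEI-soaked GF/C filters and counted; IC50 from nonlinear sigmoidal fits.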

[2] = Solubility determination; details: for Sol6: pH 6; for Sol7: pH 7
Procedure, shortened: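 Sample: TFA-salt peptide at 10 mg/ml target in 0.1 M Na diphosphate, pH 6.4 or 7.0, shaken 2 h RT, filtered, diluted to 1 mg/ml.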

Compound | Ki [1] [nM] | Sol6 [2] [mg/mL] | Sol7 [2] [mg/mL]
CC[C@H](C)[C@H](NC(=O)[C@H](CCC(=O)O)NC(=O)[C@H](CCC(=O)O)NC(=O)[C@@H]1CCCN1C(=O)[C@@H](NC(=O)[C@H](C)NC(=O)[C@H](C)NC(=O)[C@H](CCC(=O)O)NC(=O)[C@H](CCC(=O)O)NC(=O)[C@@H]1CCCN1C(=O)[C@H](CCCCNC(=O)CCCCCNC(=O)CC[C@H](NC(=O)CCCCCCCCCCCCCCCCC(=O)O)C(=O)O)NC(=O)[C@H](CCC(=O)O)NC(=O)[C@@H]1CCCN1C(=O)[C@H](C)NC(=O)CC(C)C)[C@@H](C)O)C(=O)N[C@@H](CCC(N)=O)C(=O)N[C@@H](CCCNC(=N)N)C(=O)N[C@@H](Cc1ccc(O)cc1)C(=O)N[C@@H](Cc1ccc(O)cc1)C(=O)N[C@H](C(=O)N[C@@H](C)C(=O)N[C@@H](CC(C)C)C(=O)N[C@@H](CCCNC(=N)N)C(=O)N[C@@H](Cc1c[nH]cn1)C(=O)N[C@@H](Cc1ccc(O)cc1)C(=O)N[C@@H](Cc1ccc(O)cc1)C(=O)N[C@@H](CC(N)=O)C(=O)N[C@@H](Cc1c[nH]c2ccccc12)C(=O)N[C@@H](CC(C)C)C(=O)N[C@H](C(=O)N[C@@H](CCCNC(=N)N)C(=O)N[C@@H](CCC(N)=O)C(=O)N[C@@H](CCCNC(=N)N)C(=O)N[C@@H](Cc1ccc(O)cc1)C(N)=O)[C@@H](C)O)C(C)C [Compound 154, N{alpha-4}-(3-methylbutanoyl)-N{epsilon-7}-(6-[(4S)-4-carboxy-4-(17-carboxyheptadecanamido)butanamido]hexanoyl)-[4A,7K,9E,11A,13T,17I,18Q,22V,23A,28Y,30W,31L]-hPYY(4-36)] | 3.71 | 8.3 | >10.0
CC(C)CC(=O)N[C@@H](C)C(=O)N1CCC[C@H]1C(=O)N[C@@H](CCC(=O)O)C(=O)N[C@@H](CCCCNC(=O)CCCCCNC(=O)CC[C@H](NC(=O)CCCCCCCCCCCCCCCCC(=O)O)C(=O)O)C(=O)N1CCC[C@H]1C(=O)N[C@@H](CCC(=O)O)C(=O)N[C@@H](CCC(=O)O)C(=O)N[C@@H](CC(=O)O)C(=O)N[C@@H](C)C(=O)N[C@H](C(=O)N1CCC[C@H]1C(=O)N[C@@H](CCC(=O)O)C(=O)N[C@@H](CCC(=O)O)C(=O)N[C@@H](CC(C)C)C(=O)N[C@@H](CCC(N)=O)C(=O)N[C@@H](CCCNC(=N)N)C(=O)N[C@@H](Cc1ccc(O)cc1)C(=O)N[C@@H](Cc1ccc(O)cc1)C(=O)N[C@H](C(=O)N[C@@H](CO)C(=O)N[C@@H](CC(C)C)C(=O)N[C@@H](CCCNC(=N)N)C(=O)N[C@@H](Cc1c[nH]cn1)C(=O)N[C@@H](Cc1ccc(O)cc1)C(=O)N[C@@H](Cc1ccc(O)cc1)C(=O)N[C@@H](CC(N)=O)C(=O)N[C@@H](Cc1c[nH]c2ccccc12)C(=O)N[C@@H](CC(C)C)C(=O)N[C@@H](CO)C(=O)N[C@@H](CCCNC(=N)N)C(=O)N[C@@H](CCC(N)=O)C(=O)N[C@@H](CCCNC(=N)N)C(=O)N[C@@H](Cc1ccc(O)cc1)C(N)=O)C(C)C)[C@@H](C)O [Compound 155, N{alpha-4}-(3-methylbutanoyl)-N{epsilon-7}-(6-[(4S)-4-carboxy-4-(17-carboxyheptadecanamido)butanamido]hexanoyl)-[4A,7K,9E,13T,18Q,22V,28Y,30W,31L,32S]-hPYY(4-36)] | 7.6 | >10.0 | >10.0
CC[C@H](C)[C@H](NC(=O)[C@H](CCC(=O)O)NC(=O)[C@H](CCC(=O)O)NC(=O)[C@@H]1CCCN1C(=O)[C@H](CCC(=O)O)NC(=O)[C@H](C)NC(=O)[C@H](C)NC(=O)[C@H](CCC(=O)O)NC(=O)[C@H](CCC(=O)O)NC(=O)[C@@H]1CCCN1C(=O)[C@H](CCCCNC(=O)CCCCCNC(=O)CC[C@H](NC(=O)CCCCCCCCCCCCCCCCC(=O)O)C(=O)O)NC(=O)[C@H](CCC(=O)O)NC(=O)[C@@H]1CCCN1C(=O)[C@H](C)NC(=O)CC(C)C)C(=O)N[C@@H](CCC(N)=O)C(=O)N[C@@H](CCCNC(=N)N)C(=O)N[C@@H](Cc1ccc(O)cc1)C(=O)N[C@@H](Cc1ccc(O)cc1)C(=O)N[C@H](C(=O)N[C@@H](C)C(=O)N[C@@H](CC(C)C)C(=O)N[C@@H](CCCNC(=N)N)C(=O)N[C@@H](Cc1c[nH]cn1)C(=O)N[C@@H](Cc1ccc(O)cc1)C(=O)N[C@@H](Cc1ccc(O)cc1)C(=O)N[C@@H](CC(N)=O)C(=O)N[C@@H](Cc1c[nH]c2ccccc12)C(=O)N[C@@H](CC(C)C)C(=O)N[C@H](C(=O)N[C@@H](CCCNC(=N)N)C(=O)N[C@@H](CCC(N)=O)C(=O)N[C@@H](CCCNC(=N)N)C(=O)N[C@@H](Cc1ccc(O)cc1)C(N)=O)[C@@H](C)O)C(C)C [Compound 156, N{alpha-4}-(3-methylbutanoyl)-N{epsilon-7}-(6-[(4S)-4-carboxy-4-(17-carboxyheptadecanamido)butanamido]hexanoyl)-[4A,7K,9E,11A,13E,17I,18Q,22V,23A,28Y,30W,31L]-hPYY(4-36)] | 4.2 | 9.8 | 9.6
CC[C@H](C)[C@H](NC(=O)[C@H](Cc1ccc(O)cc1)NC(=O)[C@H](Cc1ccc(O)cc1)NC(=O)[C@H](CCCNC(=N)N)NC(=O)[C@H](CCC(N)=O)NC(=O)[C@H](CC(C)C)NC(=O)[C@H](CCC(=O)O)NC(=O)[C@H](CCC(=O)O)NC(=O)[C@@H]1CCCN1C(=O)[C@H](CCC(=O)O)NC(=O)[C@H](C)NC(=O)[C@H](CC(=O)O)NC(=O)[C@H](C)NC(=O)[C@H](CCC(=O)O)NC(=O)[C@@H]1CCCN1C(=O)[C@H](CCCCNC(=O)CCCCCNC(=O)CC[C@H](NC(=O)CCCCCCCCCCCCCCCCC(=O)O)C(=O)O)NC(=O)[C@H](CCC(=O)O)NC(=O)[C@@H]1CCCN1C(=O)[C@H](C)NC(=O)CC(C)C)C(=O)N[C@@H](CO)C(=O)N[C@@H](CC(C)C)C(=O)N[C@@H](CCCNC(=N)N)C(=O)N[C@@H](Cc1c[nH]cn1)C(=O)N[C@@H](Cc1ccc(O)cc1)C(=O)N[C@@H](Cc1ccc(O)cc1)C(=O)N[C@@H](CC(N)=O)C(=O)N[C@@H](Cc1c[nH]c2ccccc12)C(=O)N[C@@H](CC(C)C)C(=O)N[C@H](C(=O)N[C@@H](CCCNC(=N)N)C(=O)N[C@@H](CCC(N)=O)C(=O)N[C@@H](CCCNC(=N)N)C(=O)N[C@@H](Cc1ccc(O)cc1)C(N)=O)[C@@H](C)O [Compound 159, N{alpha-4}-(3-methylbutanoyl)-N{epsilon-7}-(6-[(4S)-4-carboxy-4-(17-carboxyheptadecanamido)butanamido]hexanoyl)-[4A,7K,9E,10A,13E,18Q,22I,28Y,30W,31L]-hPYY(4-36)] (Isovaleryl-APEK([Ahx-γGlu-C18 diacid])PEADAEPEELQRYYISLRHYYNWLTRQRY-NH2) | 2.75 | >10.0 | 10.0

The next molecules have a lower Ki [1] than those just listed; values first:

Ki [1] [nM] | Sol6 [2] [mg/mL] | Sol7 [2] [mg/mL] | Compound
1.68 | 0.0 | 0.3 | CC(C)CC(=O)N[C@@H](C)C(=O)N1CCC[C@H]1C(=O)N[C@@H](C)C(=O)N[C@@H](CCCCNC(=O)CCCCCNC(=O)CC[C@H](NC(=O)CCCCCCCCCCCCCCCCC(=O)O)C(=O)O)C(=O)N1CCC[C@H]1C(=O)N[C@@H](CCC(=O)O)C(=O)N[C@@H](CCC(=O)O)C(=O)N[C@@H](C)C(=O)N[C@@H](C)C(=O)N[C@@H](CO)C(=O)N1CCC[C@H]1C(=O)N[C@@H](CCC(=O)O)C(=O)N[C@@H](CCC(=O)O)C(=O)N[C@@H](CC(C)C)C(=O)N[C@@H](CCC(N)=O)C(=O)N[C@@H](CCCNC(=N)N)C(=O)N[C@@H](Cc1ccc(O)cc1)C(=O)N[C@@H](Cc1ccc(O)cc1)C(=O)N[C@H](C(=O)N[C@@H](C)C(=O)N[C@@H](CC(C)C)C(=O)N[C@@H](CCCNC(=N)N)C(=O)N[C@@H](Cc1c[nH]cn1)C(=O)N[C@@H](Cc1ccc(O)cc1)C(=O)N[C@@H](Cc1ccc(O)cc1)C(=O)N[C@@H](CC(N)=O)C(=O)N[C@@H](Cc1c[nH]c2ccccc12)C(=O)N[C@@H](CC(C)C)C(=O)N[C@H](C(=O)N[C@@H](CCCNC(=N)N)C(=O)N[C@@H](CCC(N)=O)C(=O)N[C@@H](CCCNC(=N)N)C(=O)N[C@@H](Cc1ccc(O)cc1)C(N)=O)[C@@H](C)O)C(C)C [Compound 157, N{alpha-4}-(3-methylbutanoyl)-N{epsilon-7}-(6-[(4S)-4-carboxy-4-(17-carboxyheptadecanamido)butanamido]hexanoyl)-[4A,6A,7K,9E,11A,18Q,22V,23A,28Y,30W,31L]-hPYY(4-36)]
0.58 | 0.0 | 0.4 | CC[C@H](C)[C@H](NC(=O)[C@H](CCC(=O)O)NC(=O)[C@H](CCC(=O)O)NC(=O)[C@@H]1CCCN1C(=O)[C@H](CO)NC(=O)[C@H](C)NC(=O)[C@H](C)NC(=O)[C@H](CCC(=O)O)NC(=O)[C@@H]1CCCN1C(=O)[C@@H]1CCCN1C(=O)[C@H](CCCCNC(=O)CCCCCNC(=O)CC[C@H](NC(=O)CCCCCCCCCCCCCCCCC(=O)O)C(=O)O)NC(=O)[C@H](CCC(=O)O)NC(=O)[C@@H]1CCCN1C(=O)[C@H](C)NC(=O)CC(C)C)C(=O)N[C@@H](CCC(N)=O)C(=O)N[C@@H](CCCNC(=N)N)C(=O)N[C@@H](Cc1ccc(O)cc1)C(=O)N[C@@H](Cc1ccc(O)cc1)C(=O)N[C@H](C(=O)N[C@@H](C)C(=O)N[C@@H](CC(C)C)C(=O)N[C@@H](CCCNC(=N)N)C(=O)N[C@@H](Cc1c[nH]cn1)C(=O)N[C@@H](Cc1ccc(O)cc1)C(=O)N[C@@H](Cc1ccc(O)cc1)C(=O)N[C@@H](CC(N)=O)C(=O)N[C@@H](Cc1c[nH]c2ccccc12)C(=O)N[C@@H](CC(C)C)C(=O)N[C@H](C(=O)N[C@@H](CCCNC(=N)N)C(=O)N[C@@H](CCC(N)=O)C(=O)N[C@@H](CCCNC(=N)N)C(=O)N[C@@H](Cc1ccc(O)cc1)C(N)=O)[C@@H](C)O)C(C)C [Compound 158, N{alpha-4}-(3-methylbutanoyl)-N{epsilon-7}-(6-[(4S)-4-carboxy-4-(17-carboxyheptadecanamido)butanamido]hexanoyl)-[4A,7K,9P,11A,17I,18Q,22V,23A,28Y,30W,31L]-hPYY(4-36)]
